# From US11072588B2, “Barbituric acid derivatives comprising cationic and lipophilic groups” (UNIVERSITETET I TROMSØ—NORGES ARKTISKE UNIVERSITET, priority 2017, dated 2021)
# Legend:
# [1] = system: Corynebacterium glutamicum ATCC 13032; test: MIC assay, antibiotic susceptible reference strain; format: cell-based; settings: Corynebacterium glutamicum, ATCC13032, read-out: Antimicrobial activity (MIC) C. g
# In short: (§1)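 Broth microdilution followed CLSI M07-A9 with modifications: inoculum ~2.5-3×10^4 cells/mL in Mueller-Hinton broth, mixed 1:1 with test derivative, incubated 48 h at 35 °C. MIC was the lowest concentration giving no growth by OD600, tested in three parallels, with oxytetracycline as reference antibiotic.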
# [2] = system: Escherichia coli ATCC 25922; test: MIC assay, antibiotic susceptible reference strain; format: cell-based; settings: Escherichia coli, ATCC25922, read-out: Antimicrobial activity (MIC) E. c
# In short: as §1
# [3] = system: Pseudomonas aeruginosa PA01, DSM 19880 (ATCC 15692); test: MIC assay, antibiotic susceptible reference strain; format: cell-based; settings: Pseudomonas aeruginosa, read-out: Antimicrobial activity (MIC) P. a
# In short: as §1
# [4] = system: Staphylococcus aureus ATCC 9144; test: MIC assay, antibiotic susceptible reference strain; format: cell-based; settings: Staphylococcus aureus, ATCC9144, read-out: Antimicrobial activity (MIC) S. a
# In short: as §1
# [5] = system: S. aureus IHT 99040; test: MIC, multi-resistant clinical isolate; format: cell-based, Staphylococcus aureus; settings: for selectivity index (EC50/MIC): RBC EC50 / MIC; for MIC: Staphylococcus aureus, IHT99040, read-out: Antimicrobial activity (MIC)
# [6] = system: S. aureus N315; test: MIC, multi-resistant clinical isolate; format: cell-based, Staphylococcus aureus; settings: for selectivity index (EC50/MIC): RBC EC50 / MIC, S. aureus N315; for MIC: Staphylococcus aureus, N315, read-out: Antimicrobial activity (MIC)
# [7] = system: S. aureus NCTC 10442; test: MIC, multi-resistant clinical isolate; format: cell-based, Staphylococcus aureus; settings: for selectivity index (EC50/MIC): RBC EC50 / MIC, S. aureus NCTC 10442; for MIC: Staphylococcus aureus, NCTC10442, read-out: Antimicrobial activity (MIC)
# [8] = system: S. aureus strain 85/2082; test: MIC, multi-resistant clinical isolate; format: cell-based, Staphylococcus aureus; settings: for selectivity index (EC50/MIC): RBC EC50 / MIC, S. aureus strain 85/2082; for MIC: Staphylococcus aureus, 85/2082, read-out: Antimicrobial activity (MIC)
# [9] = system: S. aureus strain WIS; test: MIC, multi-resistant clinical isolate; format: cell-based, Staphylococcus aureus; settings: for selectivity index (EC50/MIC): RBC EC50 / MIC, S. aureus strain WIS; for MIC: Staphylococcus aureus, read-out: Antimicrobial activity (MIC)
# [10] = system: E. coli 50579417; test: MIC, multi-resistant clinical isolate; format: cell-based, Escherichia coli; settings: for MIC: Escherichia coli, read-out: Antimicrobial activity (MIC); for selectivity index (EC50/MIC): RBC EC50 / MIC
# [11] = system: E. coli 50639799; test: MIC, multi-resistant clinical isolate; format: cell-based, Escherichia coli; settings: for MIC: Escherichia coli, read-out: Antimicrobial activity (MIC); for selectivity index (EC50/MIC): RBC EC50 / MIC
# [12] = system: E. coli 50676002; test: MIC, multi-resistant clinical isolate; format: cell-based, Escherichia coli; settings: E. coli 50676002; for MIC: Escherichia coli, read-out: Antimicrobial activity (MIC); for selectivity index (EC50/MIC): RBC EC50 / MIC
# [13] = system: E. coli 50739822; test: MIC, multi-resistant clinical isolate; format: cell-based, Escherichia coli; settings: for MIC: Escherichia coli, read-out: Antimicrobial activity (MIC); for selectivity index (EC50/MIC): RBC EC50 / MIC
# [14] = system: E. coli 50857972; test: MIC, multi-resistant clinical isolate; format: cell-based, Escherichia coli; settings: for MIC: Escherichia coli, read-out: Antimicrobial activity (MIC); for selectivity index (EC50/MIC): RBC EC50 / MIC
# [15] = system: P. aeruginosa 50692172; test: MIC, multi-resistant clinical isolate; format: cell-based, Pseudomonas aeruginosa; settings: for MIC: Pseudomonas aeruginosa, read-out: Antimicrobial activity (MIC); for selectivity index (EC50/MIC): RBC EC50 / MIC
# [16] = system: P. aeruginosa 50692520; test: MIC, multi-resistant clinical isolate; format: cell-based, Pseudomonas aeruginosa; settings: for MIC: Pseudomonas aeruginosa, read-out: Antimicrobial activity (MIC); for selectivity index (EC50/MIC): RBC EC50 / MIC
# [17] = system: P. aeruginosa K34-73; test: MIC, multi-resistant clinical isolate; format: cell-based, Pseudomonas aeruginosa; settings: P. aeruginosa K34-73; for MIC: Pseudomonas aeruginosa, K3473, read-out: Antimicrobial activity (MIC); for selectivity index (EC50/MIC): RBC EC50 / MIC
# [18] = system: P. aeruginosa K34-7; test: MIC, multi-resistant clinical isolate; format: cell-based, Pseudomonas aeruginosa; settings: for MIC: Pseudomonas aeruginosa, K347, read-out: Antimicrobial activity (MIC); for selectivity index (EC50/MIC): RBC EC50 / MIC, P. aeruginosa K34-7
# [19] = system: P. aeruginosa K44-24; test: MIC, multi-resistant clinical isolate; format: cell-based, Pseudomonas aeruginosa; settings: for MIC: Pseudomonas aeruginosa, K4424, read-out: Antimicrobial activity (MIC); for selectivity index (EC50/MIC): RBC EC50 / MIC
# [20] = system: K. pneumoniae 50531633; test: MIC, multi-resistant clinical isolate; format: cell-based, Klebsiella pneumoniae; settings: K. pneumoniae 50531633, resistant to colistin; for MIC: Klebsiella pneumoniae, 24 h, read-out: Antimicrobial activity (MIC); for selectivity index (EC50/MIC): RBC EC50 / MIC
# [21] = system: K. pneumoniae 50625602; test: MIC, multi-resistant clinical isolate; format: cell-based, Klebsiella pneumoniae; settings: for MIC: Klebsiella pneumoniae, read-out: Antimicrobial activity (MIC); for selectivity index (EC50/MIC): RBC EC50 / MIC
# [22] = system: K. pneumoniae 50667959; test: MIC, multi-resistant clinical isolate; format: cell-based, Klebsiella pneumoniae; settings: for MIC: Klebsiella pneumoniae, read-out: Antimicrobial activity (MIC); for selectivity index (EC50/MIC): RBC EC50 / MIC
# [23] = system: K. pneumoniae K66-45; test: MIC, multi-resistant clinical isolate; format: cell-based, Klebsiella pneumoniae; settings: for MIC: Klebsiella pneumoniae, K6645, read-out: Antimicrobial activity (MIC); for selectivity index (EC50/MIC): RBC EC50 / MIC, K. pneumoniae K66-45
# [24] = system: S. epidermidis; test: Anti-biofilm activity (inhibition of biofilm formation); format: cell-based; settings: Staphylococcus epidermidis, read-out: Anti-biofilm IC50
smiles,measurement,setting,value
"N=C(N)NCCCCN1C(=O)N(CCCCNC(=N)N)C(=O)C(Cc2ccc3ccccc3c2)(Cc2ccc3ccccc3c2)C1=O [8(iv), 1,1′-(4,4′-(5,5-bis(naphthalen-2-ylmethyl)-2,4,6-trioxodihydropyrimidine-1,3(2H,4H)-diyl)bis(butane-4,1-diyl))-diguanidine]",MIC,[1],0.25 µg/mL
same,MIC,[2],1 µg/mL
same,MIC,[3],8 µg/mL
same,MIC,[4],1 µg/mL
same,selectivity index (EC50/MIC),[5],(17)
same,MIC,[5],8 µg/mL
same,selectivity index (EC50/MIC),[6],(17)
same,MIC,[6],8 µg/mL
same,selectivity index (EC50/MIC),[7],(17)
same,MIC,[7],8 µg/mL
same,selectivity index (EC50/MIC),[8],(17)
same,MIC,[8],8 µg/mL
same,selectivity index (EC50/MIC),[9],(17)
same,MIC,[9],8 µg/mL
same,MIC,[10],16 µg/mL
same,selectivity index (EC50/MIC),[10],(8)
same,MIC,[11],8 µg/mL
same,selectivity index (EC50/MIC),[11],(17)
same,MIC,[12],8 µg/mL
same,selectivity index (EC50/MIC),[12],(17)
same,MIC,[13],8 µg/mL
same,selectivity index (EC50/MIC),[13],(17)
same,MIC,[14],8 µg/mL
same,selectivity index (EC50/MIC),[14],(17)
same,MIC,[15],32 µg/mL
same,selectivity index (EC50/MIC),[15],(4)
same,MIC,[16],32 µg/mL
same,selectivity index (EC50/MIC),[16],(4)
same,MIC,[17],32 µg/mL
same,selectivity index (EC50/MIC),[17],(4)
same,MIC,[18],32 µg/mL
same,selectivity index (EC50/MIC),[18],(4)
same,MIC,[19],32 µg/mL
same,selectivity index (EC50/MIC),[19],(4)
same,MIC,[20],16 µg/mL
same,selectivity index (EC50/MIC),[20],(8)
same,MIC,[21],16 µg/mL
same,selectivity index (EC50/MIC),[21],(8)
same,MIC,[22],16 µg/mL
same,selectivity index (EC50/MIC),[22],(8)
same,MIC,[23],16 µg/mL
same,selectivity index (EC50/MIC),[23],(8)
same,IC50,[24],1 µg/mL
"N=C(N)NCCCCN1C(=O)N(CCCCNC(=N)N)C(=O)C(Cc2ccc(F)c3ccccc23)(Cc2ccc(F)c3ccccc23)C1=O [8(v), 1,1′-(4,4′-(5,5-bis((4-fluoronaphthalen-1-yl)methyl)-2,4,6-trioxodihydropyrimidine-1,3(2H,4H)-diyl)bis(butane-4,1-diyl))diguanidine]",MIC,[1],0.25 µg/mL
same,MIC,[2],1 µg/mL
same,MIC,[3],4 µg/mL
same,MIC,[4],1 µg/mL
same,selectivity index (EC50/MIC),[5],(44)
same,MIC,[5],2 µg/mL
same,selectivity index (EC50/MIC),[6],(44)
same,MIC,[6],2 µg/mL
same,selectivity index (EC50/MIC),[7],(44)
same,MIC,[7],2 µg/mL
same,selectivity index (EC50/MIC),[8],(44)
same,MIC,[8],2 µg/mL
same,selectivity index (EC50/MIC),[9],(44)
same,MIC,[9],2 µg/mL
same,MIC,[10],8 µg/mL
same,selectivity index (EC50/MIC),[10],(11)
same,MIC,[11],4 µg/mL
same,selectivity index (EC50/MIC),[11],(22)
same,MIC,[12],4 µg/mL
same,selectivity index (EC50/MIC),[12],(22)
same,MIC,[13],8 µg/mL
same,selectivity index (EC50/MIC),[13],(11)
same,MIC,[14],4 µg/mL
same,selectivity index (EC50/MIC),[14],(22)
same,MIC,[15],16 µg/mL
same,selectivity index (EC50/MIC),[15],(6)
same,MIC,[16],16 µg/mL
same,selectivity index (EC50/MIC),[16],(6)
same,MIC,[17],8 µg/mL
same,selectivity index (EC50/MIC),[17],(11)
same,MIC,[18],16 µg/mL
same,selectivity index (EC50/MIC),[18],(6)
same,MIC,[19],16 µg/mL
same,selectivity index (EC50/MIC),[19],(6)
same,MIC,[20],8 µg/mL
same,selectivity index (EC50/MIC),[20],(11)
same,MIC,[21],16 µg/mL
same,selectivity index (EC50/MIC),[21],(6)
same,MIC,[22],4 µg/mL
same,selectivity index (EC50/MIC),[22],(22)
same,MIC,[23],4 µg/mL
same,selectivity index (EC50/MIC),[23],(22)
same,IC50,[24],1 µg/mL
